{"source": "paper PMC10257182", "about": "“Discovery of senolytics using machine learning” (Nature Communications, 2023)", "type_in_all_cases": "cell-based, human", "key": {"[1]": {"system": "non-senescent control IMR90 ER:RAS cells", "experiment": "Nuclei count (Hoechst, high content imaging) senolytic assay, OIS model, non-senescent control cells", "details": "Homo sapiens", "summary_of_the_method": "(§1)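 Senescence in IMR90 ER:RAS fibroblasts induced with 100 nM 4-OHT; non-senescent and senescent cells treated 72 h with compounds, 10-point […] range 10 μM–10 nM, triplicate. Cells fixed, permeabilised, Hoechst-stained; total nuclei per well counted by high-content imaging versus untreated controls as cell-death readout.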"}, "[2]": {"system": "senescent IMR90 ER:RAS cells (4-OHT-induced)", "experiment": "Nuclei count (Hoechst, high content imaging) senolytic assay, oncogene-induced senescence (OIS) model, senescent cells", "summary_of_the_method": "as §1"}, "[3]": {"system": "non-senescent control A549 cells", "experiment": "Nuclei count senolytic assay, TIS model, non-senescent control cells", "details": "Homo sapiens, A549, Control cells, mean, read-out: Mean % Cell Survival", "summary_of_the_method": "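A549 cells were made senescent with 100 μM etoposide for 48 h, then kept three days in normal media; non-senescent A549 served as controls. Compounds were dosed as a 10-point […] series (10 μM to 10 nM final) for 72 h in triplicate. Hoechst-stained nuclei were counted by imaging after fixation.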"}}, "note": "Where two headings read alike, the source gives them in different places.", "data": [{"smiles": "O=c1c(O)c(-c2ccc(O)cc2O)oc2cc(O)cc(O)c12", "note": "[Morin, morin]", "values": [{"measurement": "viability at 10 µM", "setting": "[1]; IMR-90, 72 h, Control, log (dose) [M] -5, 72 h, mean n=3 (Fig 3C), read-out: Mean % Cell Survival", "result": 95.2, "unit": "%"}, {"measurement": "viability at 4.677 µM", "setting": "[1]; IMR-90, 72 h, Control, log (dose) [M] -5.33, 72 h, mean n=3 (Fig 3C), read-out: Mean % Cell Survival", "result": 93.9, "unit": "%"}, {"measurement": "viability at 2.188 µM", "setting": "[1]; IMR-90, 72 h, Control, log (dose) [M] -5.66, 72 h, mean n=3 (Fig 3C), read-out: Mean % Cell Survival", "result": 96.1, "unit": "%"}, {"measurement": "viability at 1 µM", "setting": "[1]; IMR-90, 72 h, Control, log (dose) [M] -6, 72 h, mean n=3 (Fig 3C), read-out: Mean % Cell Survival", "result": 81.3, "unit": "%"}, {"measurement": "viability at 0.4677 µM", "setting": "[1]; IMR-90, 72 h, Control, log (dose) [M] -6.33, 72 h, mean n=3 (Fig 3C), read-out: Mean % Cell Survival", "result": 91.6, "unit": "%"}, {"measurement": "viability at 0.2188 µM", "setting": "[1]; IMR-90, 72 h, Control, log (dose) [M] -6.66, 72 h, mean n=3 (Fig 3C), read-out: Mean % Cell Survival", "result": 86.4, "unit": "%"}, {"measurement": "viability at 0.1 µM", "setting": "[1]; IMR-90, 72 h, Control, log (dose) [M] -7, 72 h, mean n=3 (Fig 3C), read-out: Mean % Cell Survival", "result": 91.3, "unit": "%"}, {"measurement": "viability at 0.04677 µM", "setting": "[1]; IMR-90, 72 h, Control, log (dose) [M] -7.33, 72 h, mean n=3 (Fig 3C), read-out: Mean % Cell Survival", "result": 86.7, "unit": "%"}, {"measurement": "viability at 0.02188 µM", "setting": "[1]; IMR-90, 72 h, Control, log (dose) [M] -7.66, 72 h, mean n=3 (Fig 3C), read-out: Mean % Cell Survival", "result": 91.5, "unit": "%"}, {"measurement": "viability at 0.01 µM", "setting": "[1]; IMR-90, 72 h, Control, log (dose) [M] -8, 72 h, mean n=3 (Fig 3C), read-out: Mean % Cell Survival", "result": 99.5, "unit": "%"}, {"measurement": "viability at 10 µM", "setting": "[1]; IMR-90, Control cells, log (dose) [M] -5, individual replicates, SUP FIG 4C, read-out: % Cell Survival", "result": 88.7, "unit": "%"}, {"measurement": "viability at 4.677 µM", "setting": "[1]; IMR-90, Control cells, log (dose) [M] -5.33, individual replicates, SUP FIG 4C, read-out: % Cell Survival", "result": 93.4, "unit": "%"}, {"measurement": "viability at 2.188 µM", "setting": "[1]; IMR-90, Control cells, log (dose) [M] -5.66, individual replicates, SUP FIG 4C, read-out: % Cell Survival", "result": 102, "unit": "%"}, {"measurement": "viability at 0.4677 µM", "setting": "[1]; IMR-90, Control cells, log (dose) [M] -6.33, individual replicates, SUP FIG 4C, read-out: % Cell Survival", "result": 88.8, "unit": "%"}, {"measurement": "viability at 0.1 µM", "setting": "[1]; IMR-90, Control cells, log (dose) [M] -7, individual replicates, SUP FIG 4C, read-out: % Cell Survival", "result": 98.5, "unit": "%"}, {"measurement": "viability at 0.01 µM", "setting": "[1]; IMR-90, Control cells, log (dose) [M] -8, individual replicates, SUP FIG 4C, read-out: % Cell Survival", "result": 103, "unit": "%"}, {"measurement": "viability at 10 µM", "setting": "[1]; IMR-90, Control, log (dose) [M] -5, read-out: % Cell Survival", "result": 102, "unit": "%"}, {"measurement": "viability at 2.19 µM", "setting": "[1]; IMR-90, Control, log (dose) [M] -5.66, read-out: % Cell Survival", "result": 93.3, "unit": "%"}, {"measurement": "viability at 0.468 µM", "setting": "[1]; IMR-90, Control, log (dose) [M] -6.33, read-out: % Cell Survival", "result": 110, "unit": "%"}, {"measurement": "viability at 0.219 µM", "setting": "[1]; IMR-90, Control, log (dose) [M] -6.66, read-out: % Cell Survival", "result": 106, "unit": "%"}, {"measurement": "viability at 0.1 µM", "setting": "[1]; IMR-90, Control, log (dose) [M] -7, read-out: % Cell Survival", "result": 91.9, "unit": "%"}, {"measurement": "viability at 0.0219 µM", "setting": "[1]; IMR-90, Control, log (dose) [M] -7.66, read-out: % Cell Survival", "result": 98.9, "unit": "%"}, {"measurement": "viability at 0.01 µM", "setting": "[1]; IMR-90, Control, log (dose) [M] -8, read-out: % Cell Survival", "result": 97.2, "unit": "%"}, {"measurement": "viability at 10 µM", "setting": "[2]; Homo sapiens, IMR-90, 72 h, Senescent, log (dose) [M] -5, 72 h, mean n=3 (Fig 3C), read-out: Mean % Cell Survival", "result": 75, "unit": "%"}, {"measurement": "viability at 4.677 µM", "setting": "[2]; Homo sapiens, IMR-90, 72 h, Senescent, log (dose) [M] -5.33, 72 h, mean n=3 (Fig 3C), read-out: Mean % Cell Survival", "result": 90.7, "unit": "%"}, {"measurement": "viability at 2.188 µM", "setting": "[2]; Homo sapiens, IMR-90, 72 h, Senescent, log (dose) [M] -5.66, 72 h, mean n=3 (Fig 3C), read-out: Mean % Cell Survival", "result": 96.2, "unit": "%"}, {"measurement": "viability at 1 µM", "setting": "[2]; Homo sapiens, IMR-90, 72 h, Senescent, log (dose) [M] -6, 72 h, mean n=3 (Fig 3C), read-out: Mean % Cell Survival", "result": 91.1, "unit": "%"}, {"measurement": "viability at 0.4677 µM", "setting": "[2]; Homo sapiens, IMR-90, 72 h, Senescent, log (dose) [M] -6.33, 72 h, mean n=3 (Fig 3C), read-out: Mean % Cell Survival", "result": 91.7, "unit": "%"}, {"measurement": "viability at 0.2188 µM", "setting": "[2]; Homo sapiens, IMR-90, 72 h, Senescent, log (dose) [M] -6.66, 72 h, mean n=3 (Fig 3C), read-out: Mean % Cell Survival", "result": 92.4, "unit": "%"}, {"measurement": "viability at 0.1 µM", "setting": "[2]; Homo sapiens, IMR-90, 72 h, Senescent, log (dose) [M] -7, 72 h, mean n=3 (Fig 3C), read-out: Mean % Cell Survival", "result": 96.6, "unit": "%"}, {"measurement": "viability at 0.04677 µM", "setting": "[2]; Homo sapiens, IMR-90, 72 h, Senescent, log (dose) [M] -7.33, 72 h, mean n=3 (Fig 3C), read-out: Mean % Cell Survival", "result": 95.3, "unit": "%"}, {"measurement": "viability at 0.02188 µM", "setting": "[2]; Homo sapiens, IMR-90, 72 h, Senescent, log (dose) [M] -7.66, 72 h, mean n=3 (Fig 3C), read-out: Mean % Cell Survival", "result": 92.3, "unit": "%"}, {"measurement": "viability at 0.01 µM", "setting": "[2]; Homo sapiens, IMR-90, 72 h, Senescent, log (dose) [M] -8, 72 h, mean n=3 (Fig 3C), read-out: Mean % Cell Survival", "result": 94.2, "unit": "%"}, {"measurement": "viability at 10 µM", "setting": "[2]; Homo sapiens, IMR-90, Senescent cells, log (dose) [M] -5, individual replicates, SUP FIG 4C, read-out: % Cell Survival", "result": 75.9, "unit": "%"}, {"measurement": "viability at 0.04677 µM", "setting": "[2]; Homo sapiens, IMR-90, Senescent cells, log (dose) [M] -7.33, individual replicates, SUP FIG 4C, read-out: % Cell Survival", "result": 87, "unit": "%"}, {"measurement": "viability at 0.02188 µM", "setting": "[2]; Homo sapiens, IMR-90, Senescent cells, log (dose) [M] -7.66, individual replicates, SUP FIG 4C, read-out: % Cell Survival", "result": 91.1, "unit": "%"}, {"measurement": "viability at 2.188 µM", "setting": "[2]; Homo sapiens, IMR-90, Senescent, log (dose) [M] -5.66, read-out: % Cell Survival", "result": 55.7, "unit": "%"}, {"measurement": "viability at 1 µM", "setting": "[2]; Homo sapiens, IMR-90, Senescent, log (dose) [M] -6, read-out: % Cell Survival", "result": 62.4, "unit": "%"}, {"measurement": "viability at 0.2188 µM", "setting": "[2]; Homo sapiens, IMR-90, Senescent, log (dose) [M] -6.66, read-out: % Cell Survival", "result": 63.2, "unit": "%"}, {"measurement": "viability at 0.02188 µM", "setting": "[2]; Homo sapiens, IMR-90, Senescent, log (dose) [M] -7.66, read-out: % Cell Survival", "result": 95.7, "unit": "%"}, {"measurement": "viability at 0.01 µM", "setting": "[2]; Homo sapiens, IMR-90, Senescent, log (dose) [M] -8, read-out: % Cell Survival", "result": 93.7, "unit": "%"}, {"measurement": "senolytic activity (in words)", "setting": "[2]; experimental screen, OIS IMR90 ER:RAS", "result": "inactive"}, {"measurement": "viability at 10 µM", "setting": "[3]; log (dose) [M] -5", "result": 33.9, "unit": "%"}, {"measurement": "viability at 4.68 µM", "setting": "[3]; log (dose) [M] -5.33", "result": 98.9, "unit": "%"}, {"measurement": "viability at 2.19 µM", "setting": "[3]; log (dose) [M] -5.66", "result": 63.6, "unit": "%"}, {"measurement": "viability at 1 µM", "setting": "[3]; log (dose) [M] -6", "result": 115, "unit": "%"}, {"measurement": "viability at 0.468 µM", "setting": "[3]; log (dose) [M] -6.33", "result": 104, "unit": "%"}, {"measurement": "viability at 0.219 µM", "setting": "[3]; log (dose) [M] -6.66", "result": 99.4, "unit": "%"}, {"measurement": "viability at 0.1 µM", "setting": "[3]; log (dose) [M] -7", "result": 94.4, "unit": "%"}, {"measurement": "viability at 0.0468 µM", "setting": "[3]; log (dose) [M] -7.33", "result": 111, "unit": "%"}, {"measurement": "viability at 0.0219 µM", "setting": "[3]; log (dose) [M] -7.66", "result": 67.6, "unit": "%"}, {"measurement": "viability at 0.01 µM", "setting": "[3]; log (dose) [M] -8", "result": 67.4, "unit": "%"}]}]}
